{"source": "paper PMC5572076", "about": "(Xenobiotica; the fate of foreign compounds in biological …, 2016)", "key": {"[1]": {"conditions": "mice, cited from earlier work"}, "Human MRP4": {"target": "T1, Human MRP4 (Homo sapiens, UniProt O15439)", "T1 sequence (O15439 1-1325)": "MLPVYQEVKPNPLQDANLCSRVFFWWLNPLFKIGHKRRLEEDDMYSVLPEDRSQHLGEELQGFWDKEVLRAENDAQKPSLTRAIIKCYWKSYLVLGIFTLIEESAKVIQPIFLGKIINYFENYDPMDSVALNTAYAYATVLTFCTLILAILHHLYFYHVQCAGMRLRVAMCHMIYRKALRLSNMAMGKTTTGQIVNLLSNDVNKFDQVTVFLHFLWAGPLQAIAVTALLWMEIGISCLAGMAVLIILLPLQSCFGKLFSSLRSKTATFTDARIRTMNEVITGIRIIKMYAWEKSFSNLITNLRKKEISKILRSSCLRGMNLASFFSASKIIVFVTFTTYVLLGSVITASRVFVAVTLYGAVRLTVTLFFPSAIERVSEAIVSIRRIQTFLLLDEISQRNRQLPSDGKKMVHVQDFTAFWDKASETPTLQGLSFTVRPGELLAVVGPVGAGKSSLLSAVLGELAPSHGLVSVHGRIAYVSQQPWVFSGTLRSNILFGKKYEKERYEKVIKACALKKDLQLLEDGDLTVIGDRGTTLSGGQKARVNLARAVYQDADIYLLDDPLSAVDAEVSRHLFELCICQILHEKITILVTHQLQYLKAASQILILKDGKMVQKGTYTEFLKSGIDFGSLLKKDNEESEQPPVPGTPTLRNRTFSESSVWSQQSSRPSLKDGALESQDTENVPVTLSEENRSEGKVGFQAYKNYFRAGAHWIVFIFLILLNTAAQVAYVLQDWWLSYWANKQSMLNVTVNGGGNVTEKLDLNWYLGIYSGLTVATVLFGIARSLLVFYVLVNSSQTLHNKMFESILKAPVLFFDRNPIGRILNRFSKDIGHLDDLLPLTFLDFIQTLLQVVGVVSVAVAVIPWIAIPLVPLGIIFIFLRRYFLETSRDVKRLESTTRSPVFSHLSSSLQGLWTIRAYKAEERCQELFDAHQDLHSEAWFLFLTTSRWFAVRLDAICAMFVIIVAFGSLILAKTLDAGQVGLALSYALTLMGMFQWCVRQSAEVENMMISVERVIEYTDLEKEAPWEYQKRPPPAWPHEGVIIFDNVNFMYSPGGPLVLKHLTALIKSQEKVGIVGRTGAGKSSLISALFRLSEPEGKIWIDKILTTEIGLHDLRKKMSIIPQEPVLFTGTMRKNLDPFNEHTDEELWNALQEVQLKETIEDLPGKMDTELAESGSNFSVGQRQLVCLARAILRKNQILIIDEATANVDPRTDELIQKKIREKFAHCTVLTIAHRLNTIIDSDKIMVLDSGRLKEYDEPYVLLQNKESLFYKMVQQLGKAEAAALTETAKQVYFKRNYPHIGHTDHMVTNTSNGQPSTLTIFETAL", "test": "Vesicular uptake assay, MRP4 membrane vesicles"}, "[2]": {"test": "NAC plasma pharmacokinetics with or without probenecid, intraperitoneal", "assay_type": "in vivo, Sprague-Dawley rats", "conditions": "juvenile rats"}, "[3]": {"assay_type": "in vivo, Sprague-Dawley rats"}, "human OAT1": {"target": "T2, human OAT1 (Homo sapiens, UniProt Q4U2R8)", "T2 sequence (Q4U2R8 1-563)": "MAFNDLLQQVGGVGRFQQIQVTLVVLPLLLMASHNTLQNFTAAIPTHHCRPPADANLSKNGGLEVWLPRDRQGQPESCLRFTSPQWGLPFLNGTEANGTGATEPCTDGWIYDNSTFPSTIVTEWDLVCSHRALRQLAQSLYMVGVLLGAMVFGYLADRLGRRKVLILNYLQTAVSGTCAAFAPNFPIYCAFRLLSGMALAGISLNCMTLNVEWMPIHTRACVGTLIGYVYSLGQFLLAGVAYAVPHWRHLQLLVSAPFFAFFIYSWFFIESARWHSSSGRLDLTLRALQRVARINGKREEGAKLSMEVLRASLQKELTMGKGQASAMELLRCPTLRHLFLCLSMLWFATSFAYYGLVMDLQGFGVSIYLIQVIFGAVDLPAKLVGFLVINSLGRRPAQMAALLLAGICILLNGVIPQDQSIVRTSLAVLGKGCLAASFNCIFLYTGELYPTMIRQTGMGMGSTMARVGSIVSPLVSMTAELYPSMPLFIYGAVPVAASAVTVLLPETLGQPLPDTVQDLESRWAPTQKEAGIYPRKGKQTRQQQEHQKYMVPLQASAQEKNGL"}, "[4]": {"conditions": "ref Giustarini et al., 2012; cited from earlier work"}, "[5]": {"conditions": "ref Borgstrom et al., 1986; cited from earlier work"}, "[6]": {"conditions": "given into the carotid artery, rats; ref Neuwelt et al., 2001; cited from earlier work"}, "human OAT3": {"target": "T3, human OAT3 (Homo sapiens, UniProt Q8TCC7)", "T3 sequence (Q8TCC7 1-542)": "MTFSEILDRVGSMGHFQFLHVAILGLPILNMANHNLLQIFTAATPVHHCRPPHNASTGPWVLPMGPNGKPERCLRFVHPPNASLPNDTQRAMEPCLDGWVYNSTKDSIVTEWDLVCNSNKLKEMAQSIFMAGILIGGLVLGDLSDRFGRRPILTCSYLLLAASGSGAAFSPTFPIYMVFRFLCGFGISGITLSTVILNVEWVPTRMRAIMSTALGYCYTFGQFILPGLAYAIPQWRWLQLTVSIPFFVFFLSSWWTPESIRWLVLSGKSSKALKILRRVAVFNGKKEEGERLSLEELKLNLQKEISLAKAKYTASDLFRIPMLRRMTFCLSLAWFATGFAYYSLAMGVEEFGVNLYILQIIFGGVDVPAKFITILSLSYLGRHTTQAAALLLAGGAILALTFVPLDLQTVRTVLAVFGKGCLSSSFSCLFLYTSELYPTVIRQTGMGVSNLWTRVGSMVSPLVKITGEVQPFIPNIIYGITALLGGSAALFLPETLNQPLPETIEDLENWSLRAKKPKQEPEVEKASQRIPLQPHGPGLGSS", "test": "14C-NAC uptake in HEK-OAT3 cells"}, "Human MRP1": {"target": "Human MRP1 (Homo sapiens, UniProt P33527)", "sequence (P33527 whole entry)": "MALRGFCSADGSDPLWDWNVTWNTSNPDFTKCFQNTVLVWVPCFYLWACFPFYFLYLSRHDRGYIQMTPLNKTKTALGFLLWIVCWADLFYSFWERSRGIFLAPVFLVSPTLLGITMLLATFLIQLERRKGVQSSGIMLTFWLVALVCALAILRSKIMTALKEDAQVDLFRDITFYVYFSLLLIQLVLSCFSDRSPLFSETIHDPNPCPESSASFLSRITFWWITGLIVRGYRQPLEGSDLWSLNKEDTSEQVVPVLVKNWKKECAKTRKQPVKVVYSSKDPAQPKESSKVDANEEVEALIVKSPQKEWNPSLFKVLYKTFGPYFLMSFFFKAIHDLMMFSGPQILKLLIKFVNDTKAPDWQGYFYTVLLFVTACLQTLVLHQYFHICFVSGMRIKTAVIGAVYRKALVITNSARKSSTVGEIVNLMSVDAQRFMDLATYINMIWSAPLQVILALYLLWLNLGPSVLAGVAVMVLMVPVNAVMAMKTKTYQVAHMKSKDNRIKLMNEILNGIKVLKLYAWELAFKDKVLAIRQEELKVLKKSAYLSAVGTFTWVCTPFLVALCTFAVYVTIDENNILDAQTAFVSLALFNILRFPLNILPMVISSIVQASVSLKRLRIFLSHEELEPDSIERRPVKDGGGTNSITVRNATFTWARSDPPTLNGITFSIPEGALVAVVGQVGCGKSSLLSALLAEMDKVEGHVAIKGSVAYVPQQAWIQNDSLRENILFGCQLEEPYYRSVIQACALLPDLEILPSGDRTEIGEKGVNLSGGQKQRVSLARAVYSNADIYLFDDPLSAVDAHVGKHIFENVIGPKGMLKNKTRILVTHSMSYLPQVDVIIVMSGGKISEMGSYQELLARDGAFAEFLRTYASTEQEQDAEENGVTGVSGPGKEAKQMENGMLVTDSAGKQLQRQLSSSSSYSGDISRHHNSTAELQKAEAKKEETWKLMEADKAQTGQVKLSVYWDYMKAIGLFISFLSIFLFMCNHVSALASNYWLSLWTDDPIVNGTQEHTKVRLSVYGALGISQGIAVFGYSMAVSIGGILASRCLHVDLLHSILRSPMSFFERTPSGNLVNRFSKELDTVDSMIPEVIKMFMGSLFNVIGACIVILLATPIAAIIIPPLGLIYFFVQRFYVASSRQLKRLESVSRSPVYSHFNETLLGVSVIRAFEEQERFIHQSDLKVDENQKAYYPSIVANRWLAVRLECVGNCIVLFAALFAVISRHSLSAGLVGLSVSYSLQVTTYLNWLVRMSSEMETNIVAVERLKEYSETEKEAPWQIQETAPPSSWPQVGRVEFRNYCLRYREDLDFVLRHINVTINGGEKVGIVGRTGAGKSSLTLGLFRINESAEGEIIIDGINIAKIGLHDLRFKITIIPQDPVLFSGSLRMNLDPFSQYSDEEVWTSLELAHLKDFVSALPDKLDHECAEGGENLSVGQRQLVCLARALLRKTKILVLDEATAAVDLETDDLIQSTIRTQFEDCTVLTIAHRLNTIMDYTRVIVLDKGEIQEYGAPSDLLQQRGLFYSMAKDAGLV", "test": "Vesicular uptake assay, MRP1 membrane vesicles"}, "HEK-EV cells": {"test_system": "HEK-EV cells", "test": "14C-NAC uptake in HEK-empty vector control cells", "assay_type": "in vitro ADME, human", "conditions": "200 μM probenecid, 25 min, n = 3"}, "[7]": {"conditions": "in vitro uptake and inhibition experiments"}, "[8]": {"conditions": "OAT3-overexpressing cells, 25 μM NAC"}}, "note": "“Also recorded” adds a separate entry of the source. Like-named read-outs stand apart in the source and are kept apart here.", "data": [{"smiles": "CC(=O)N[C@@H](CS)C(N)=O", "values": [{"measurement": "detection in the brain", "setting": "[1]; IP and oral administration, ref Offen et al., 2004", "value": "able to detect"}]}, {"smiles": "C[C@]12CC[C@@H]3c4ccc(O)cc4CC[C@H]3[C@@H]1CC[C@@H]2O[C@@H]1O[C@H](C(=O)O)[C@@H](O)[C@H](O)[C@H]1O", "note": "[E217βG, estradiol-17β-D- glucuronide]", "values": [{"measurement": "ATP-dependent uptake of positive control substrate", "setting": "Human MRP4; MRP4 vesicles, 0.25–100 μM, 0.5 minutes", "value": "saturable uptake"}]}, {"smiles": "CC(=O)N[C@@H](CS)C(=O)O", "note": "[NAC, N-acetylcysteine]", "values": [{"measurement": "apparent plasma clearance (CL/F)", "setting": "[2]; NAC 163 mg/kg ip alone", "value": "18.55 ± 0.483", "unit": "mL/min/kg"}, {"measurement": "apparent plasma clearance (CL/F)", "setting": "[2]; NAC 163 mg/kg ip in combination with probenecid 150 mg/kg ip", "value": "11.2 ± 0.137", "unit": "mL/min/kg"}, {"measurement": "NAC brain levels at late time points", "setting": "[3]; NAC and probenecid group, up to last sampling time point (8 h)", "value": "remained measurable"}, {"measurement": "NAC brain levels at late time points", "setting": "[3]; NAC only group, 6 h and 8 h time points", "value": "below the limit of quantificaiton; also recorded: below limit of quantification"}, {"measurement": "saturation of concentration-dependent NAC uptake", "setting": "human OAT1; HEK-OAT1, 25 min, up to 10 mM NAC", "value": "did not reach saturation"}, {"measurement": "NAC uptake rate", "setting": "human OAT1; OAT1-overexpressing cells, 25 μM NAC", "value": "4.2 ± 0.1", "unit": "pmol/mg/min"}, {"measurement": "time up to which NAC uptake is linear", "setting": "human OAT1; OAT1-overexpressing cells, 25 μM NAC, latest time point measured", "value": "≥ 42.5", "unit": "min"}, {"measurement": "substrate status for OAT1", "setting": "human OAT1; [7]", "value": "substrate"}, {"measurement": "log D", "setting": "[4]", "value": "−5.4"}, {"measurement": "renally eliminated", "setting": "[5]", "value": "approximately 30%"}, {"measurement": "levels in the brain", "setting": "[1]; IP administration, ref Erickson et al., 2012", "value": "low levels of NAC were measurable"}, {"measurement": "crossing of the BBB", "setting": "[6]", "value": "can cross the BBB"}, {"measurement": "saturation of concentration-dependent NAC uptake", "setting": "human OAT3; HEK-OAT3, 10 min, up to 10 mM NAC", "value": "did not reach saturation"}, {"measurement": "NAC uptake rate", "setting": "human OAT3; [8]", "value": "37.7 ± 1.9", "unit": "pmol/mg/min"}, {"measurement": "time up to which NAC uptake is linear", "setting": "human OAT3; [8]", "value": "at least 15 minutes"}, {"measurement": "substrate status for OAT3", "setting": "human OAT3; [7]", "value": "substrate"}, {"measurement": "ATP-dependent, transporter-mediated uptake of NAC vs AMP (negative control)", "setting": "Human MRP1; MRP1 vesicles, 25 μM NAC", "value": "No uptake; also recorded: not statistically different"}, {"measurement": "substrate status for MRP1", "setting": "Human MRP1; membrane vesicles", "value": "not a substrate"}, {"measurement": "ATP-dependent, transporter-mediated uptake of NAC vs AMP (negative control)", "setting": "Human MRP4; MRP4 vesicles, 25 μM NAC", "value": "No uptake; also recorded: not statistically different"}, {"measurement": "substrate status for MRP4", "setting": "Human MRP4; membrane vesicles", "value": "not a substrate"}]}, {"smiles": "CCCN(CCC)S(=O)(=O)c1ccc(C(=O)O)cc1", "note": "[probenecid]", "values": [{"measurement": "effect of probenecid on NAC uptake by control cells", "setting": "HEK-EV cells", "value": "no difference"}, {"measurement": "decrease of NAC uptake by probenecid", "setting": "human OAT3; OAT3, 200 μM probenecid pre-incubation 5 min, 10 min uptake, n = 3", "value": 93.9, "unit": "%"}]}]}
